Results as given in ChEMBL document CHEMBL1201862, “PubChem BioAssay data set” (2004).
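In this assay, cells in 96-well plates receive the compound at five concentrations for 48 hours. Endpoints are linearly interpolated between the surrounding concentrations. The concentration for 50% growth inhibition is given as GI50.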 Calls of active or inactive are those of the source. No stated cut-off is given here; in the data, active = GI50 up to about 1.1 µM and inactive = higher.

Experiments:
Assay in all cases: growth of human tumour cells (NCI), 48 h
786-0 = system: 786-0
A498 = system: A498
A549 = system: A549
ACHN = system: ACHN
CAKI-1 = system: CAKI-1
CCRF-CEM = system: CCRF-CEM
COLO 205 = system: COLO 205
DLD-1 = system: DLD-1
DMS-114 = system: DMS-114
DMS-273 = system: DMS-273
HCC 2998 = system: HCC 2998
HCT-116 = system: HCT-116
HCT-15 = system: HCT-15
HL-60 = system: HL-60
HOP-18 = system: HOP-18
HOP-62 = system: HOP-62
HOP-92 = system: HOP-92
HT-29 = system: HT-29
IGROV-1 = system: IGROV-1
K562 = system: K562
KM-20L2 = system: KM-20L2
KM12 = system: KM12
LOX IMVI = system: LOX IMVI
LXFL 529 = system: LXFL 529
M14 = system: M14
MOLT-4 = system: MOLT-4
Malme-3M = system: Malme-3M
NCI-H226 = system: NCI-H226
NCI-H460 = system: NCI-H460
NCI-H522 = system: NCI-H522
OVCAR-4 = system: OVCAR-4
OVCAR-5 = system: OVCAR-5
OVCAR-8 = system: OVCAR-8
RPMI-8226 = system: RPMI-8226
RXF 393 = system: RXF 393
RXF 631 = system: RXF 631
SF-268 = system: SF-268
SF-295 = system: SF-295
SF-539 = system: SF-539
SK-MEL-2 = system: SK-MEL-2
SK-MEL-5 = system: SK-MEL-5
SK-OV-3 = system: SK-OV-3
SN12C = system: SN12C
SNB-19 = system: SNB-19
SNB-75 = system: SNB-75
SNB-78 = system: SNB-78
SW-620 = system: SW-620
TK-10 = system: TK-10
U-251 = system: U-251
UACC-257 = system: UACC-257
UACC-62 = system: UACC-62
UO-31 = system: UO-31

COc1cc(O)c(C(=O)C2Cc3ccccc32)c(OC)c1 (configuration not stated)
GI50 (786-0): 44.2 µM (inactive)
GI50 (A498): 30 µM (inactive)
GI50 (A549): 35.8 µM (inactive)
GI50 (ACHN): 50.7 µM (inactive)
GI50 (CAKI-1): 25.6 µM (inactive)
GI50 (CCRF-CEM): 19.8 µM (inactive)
GI50 (COLO 205): > 100 µM (inactive)
GI50 (DLD-1): 46.2 µM (inactive)
GI50 (DMS-114): 27.4 µM (inactive)
GI50 (DMS-273): 43.4 µM (inactive)
GI50 (HCC 2998): 49.1 µM (inactive)
GI50 (HCT-116): 38.6 µM (inactive)
GI50 (HCT-15): 32.9 µM
GI50 (HL-60): 13 µM (inactive)
GI50 (HOP-18): 34.4 µM (inactive)
GI50 (HOP-62): > 100 µM (inactive)
GI50 (HOP-92): 35.9 µM (inactive)
GI50 (HT-29): 35.3 µM (inactive)
GI50 (IGROV-1): > 100 µM (inactive)
GI50 (K562): 32.7 µM (inactive)
GI50 (KM-20L2): 65.3 µM (inactive)
GI50 (KM12): 32.4 µM (inactive)
GI50 (LOX IMVI): 51.4 µM (inactive)
GI50 (LXFL 529): 34 µM (inactive)
GI50 (M14): 33.9 µM (inactive)
GI50 (MOLT-4): 16.9 µM (inactive)
GI50 (Malme-3M): 35.8 µM (inactive)
GI50 (NCI-H226): 22.6 µM (inactive)
GI50 (NCI-H460): 61.8 µM (inactive)
GI50 (NCI-H522): 32.7 µM (inactive)
GI50 (OVCAR-4): 64.4 µM (inactive)
GI50 (OVCAR-5): 35.7 µM (inactive)
GI50 (OVCAR-8): 48.3 µM (inactive)
GI50 (RPMI-8226): 16.8 µM (inactive)
GI50 (RXF 393): 20.3 µM (inactive)
GI50 (RXF 631): 86.9 µM (inactive)
GI50 (SF-268): 67.8 µM (inactive)
GI50 (SF-295): 86.1 µM (inactive)
GI50 (SF-539): > 100 µM (inactive)
GI50 (SK-MEL-2): 34.3 µM (inactive)
GI50 (SK-MEL-5): 29.6 µM (inactive)
GI50 (SK-OV-3): > 100 µM (inactive)
GI50 (SN12C): 46.5 µM (inactive)
GI50 (SNB-19): > 100 µM (inactive)
GI50 (SNB-75): 37.7 µM (inactive)
GI50 (SNB-78): > 100 µM (inactive)
GI50 (SW-620): 59.7 µM (inactive)
GI50 (TK-10): > 100 µM (inactive)
GI50 (U-251): 64.3 µM (inactive)
GI50 (UACC-257): 47.3 µM (inactive)
GI50 (UACC-62): 57.5 µM (inactive)
GI50 (UO-31): 33.5 µM (inactive)
